According to patent publication US20230182351A1, “ANTI-MICROBIAL ADDITIVE AND PROPERTIES TO FOAM TO PREVENT MOLD” (LEAR CORPORATION, priority 2021, published 2023):

Tested on: bacterial and fungal growth
Experiment: Antimicrobial tests summarized in Table 1 (JIS Z 2801, ASTM G-21)
Assay type: cell-based
Conditions: in polyurethane foam, amount systematically varied
Procedure: Two polyurethane sample families were prepared. The amount of the liquid antimicrobial agent N-butyl-1,2-benzisothiazolin-3-one was systematically varied. It is pointed out that he JIS Z 2801 method test is an industry standard for testing the ability of a surface to inhibit the growth of microorganisms. ASTM G-21 is a test for fungal resistance test

In the case of `CCCCn1sc2ccccc2c1=O` [N-butyl-1,2-benzisothiazolin-3-one], the “inhibition of bacterial and fungal growth” value is reported as “significant inhibition”.
